How the values were obtained:
Test in all cases: TMT LC-MSMS of 11-labelled proteins
[1] = target: Endoplasmin (HSP90B1) (Homo sapiens, UniProt P14625); assay type: cell-based
[2] = tested on: Isoform 2 of Transketolase (TKT); assay type: cell-based, Homo sapiens
Text: (§1) The labelled proteins were enriched by immunoprecipitation with an anti-fluorescein antibody and tryptically digested in gel. Digested peptides were modified with Light- (L-), Medium- (M-), or Heavy- (H-) TMT reagent for samples treated with 11, 11 with PU-H71 (as competitive condition), or DMSO (vehicle), respectively, and mixed in a 1:1:1 ratio for LC-MSMS analysis. We performed three experimental replicates, in which proteins detected and quantified at least twice were selected as identified proteins. According to the related approach of Cravatt et al[44], the proteins having L/H (11/DMSO) ratios >5 were defined as 11-labelled proteins. […] On the basis of these criteria, we identified 6 proteins that react with 11, including three ligand-specific targets (Hsp90α (HSP90AA1), Hsp90β (HSP90AB1), and Grp94 (HSP90B1)) and three off-targets (Trifunctional enzyme subunit α (HADHA), Tubulin-α (TUBA1B), and ADP/ATP translocase 3 (SLC25A6)) (Fig. 5d, e and Supplementary Data 1). […] Grp94, a HSP90 isomer, was previously reported to be a PU-H71 specific target. TRAP-1, another Hsp90 isomer that can bind PU-H71, on the other hand, was not identified as 11-target by our criteria.
(§2) SKBR3 human breast cancer cells (2.0 × 10^6 cells) were seeded on a 10 cm dish and cultured for 3 days in McCoy’s 5A in a 5% CO2 humidified chamber at 37 °C. […] As competitive experiments, the labelling was conducted in the presence of PU-H71 (10 µM). After labelling, the cells were washed twice with PBS, and lysed with RIPA buffer. […] The supernatant was mixed with chilled acetone and incubated overnight at −80 °C. The protein precipitates were solubilized by sonication in 1 mL of RIPA buffer containing 1% SDS, and then 10-fold diluted with RIPA buffer to reduce SDS concentration to c.a. 0.1%. The protein solution (containing 1 mg of protein) was mixed with Protein G Sepharose 4 Fast Flow (GE Healthcare) and rotated at 4 °C for 1 h. After removal of the beads, the remaining supernatant was mixed with anti-fluorescein antibody (Abcam, ab19491, 7:10000) and rotated at 4 °C for 1 h, followed by addition of fresh Protein G Sepharose 4 Fast Flow and further incubation at 4 °C for 4 h. The beads were washed five times with RIPA buffer and once with PBS. Proteins were eluted from the beads by addition of 2 × sample buffer containing 100 mM DTT and boiling at 95 °C for 5 min. The samples were subjected to a 7.5% SDS–PAGE gel (Mini-PROTEAN TGX Gels, BioRad), and electrophoresed as the migration distance of dye front is about 10 mm. Each lane was excised (height, 10 mm), and treated with a 47.5% methanol / 47.5% pure water / 5% acetic acid for 20 min, a 50% methanol / 50% pure water for 10 min, and in pure water for 10 min. The gel pieces were dehydrated with 100% acetonitrile, and then swelled with 200 μL of 100 mM TEAB (triethylamine bicarbonate) buffer containing 10 mM DTT and heated at 56 °C for 30 min. The solutions were replaced with 200 µL of 100 mM TEAB buffer containing 55 mM iodoacetamide and incubated for 45 min in the dark. The gel pieces were washed with 100 mM TEAB buffer and dehydrated in acetonitrile. This step was repeated once. The gels were reswelled in 100 mM TEAB buffer containing 10 ng/μL Sequencing Grade Trypsin (Promega) and incubated overnight at 37 °C. To the gels, 50 μL of an extraction solution (50% acetonitrile, 0.1% TFA) was added. After 10 min incubation, the supernatants were collected to new tubes, and this process was repeated twice. Extracted peptides were dried in vacuo and reconstituted with 25 μL of 100 mM TEAB buffer.

[3] = tested on: Isoform 4 of 4F2 cell-surface antigen heavy chain (SLC3A2); assay type: cell-based, Homo sapiens
Text: as §1, §2

[4] = tested on: Isoform Long of Glucose-6-phosphate 1-dehydrogenase (G6PD); assay type: cell-based, Homo sapiens
Text: as §1, §2

[5] = target: Dolichyl-diphosphooligosaccharide--protein glycosyltransferase 48 kDa subunit (DDOST) (Homo sapiens, UniProt P39656); assay type: cell-based
Dolichyl-diphosphooligosaccharide--protein glycosyltransferase 48 kDa subunit (DDOST), sequence (P39656 43-456): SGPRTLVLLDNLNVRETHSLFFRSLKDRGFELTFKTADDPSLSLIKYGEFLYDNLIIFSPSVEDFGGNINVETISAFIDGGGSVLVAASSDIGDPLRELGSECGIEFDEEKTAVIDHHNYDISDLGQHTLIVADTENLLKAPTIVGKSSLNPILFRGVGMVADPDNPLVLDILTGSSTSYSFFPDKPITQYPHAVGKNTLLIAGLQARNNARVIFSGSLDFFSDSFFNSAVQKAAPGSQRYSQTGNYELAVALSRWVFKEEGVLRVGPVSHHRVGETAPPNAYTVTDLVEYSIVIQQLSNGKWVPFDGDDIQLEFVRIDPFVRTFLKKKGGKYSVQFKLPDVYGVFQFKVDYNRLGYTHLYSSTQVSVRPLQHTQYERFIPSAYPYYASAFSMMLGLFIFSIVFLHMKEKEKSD
Dolichyl-diphosphooligosaccharide--protein glycosyltransferase 48 kDa subunit (DDOST), sequence (P04843 24-607 partner): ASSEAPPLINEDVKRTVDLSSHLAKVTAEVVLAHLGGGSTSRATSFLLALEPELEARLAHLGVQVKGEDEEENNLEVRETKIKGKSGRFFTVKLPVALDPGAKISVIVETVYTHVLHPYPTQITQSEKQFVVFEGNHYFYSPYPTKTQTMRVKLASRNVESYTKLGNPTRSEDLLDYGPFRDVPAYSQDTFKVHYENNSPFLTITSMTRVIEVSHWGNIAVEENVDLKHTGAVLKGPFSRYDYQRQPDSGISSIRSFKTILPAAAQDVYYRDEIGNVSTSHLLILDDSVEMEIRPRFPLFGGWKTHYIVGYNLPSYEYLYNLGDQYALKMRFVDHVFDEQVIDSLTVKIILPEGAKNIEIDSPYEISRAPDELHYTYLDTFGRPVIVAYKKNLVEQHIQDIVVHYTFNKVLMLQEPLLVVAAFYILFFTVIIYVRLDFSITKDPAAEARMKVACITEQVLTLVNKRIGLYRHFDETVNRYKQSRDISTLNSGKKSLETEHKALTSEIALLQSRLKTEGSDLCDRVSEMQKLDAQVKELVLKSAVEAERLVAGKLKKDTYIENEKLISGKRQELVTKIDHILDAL
Dolichyl-diphosphooligosaccharide--protein glycosyltransferase 48 kDa subunit (DDOST), sequence (P04844 23-631 partner): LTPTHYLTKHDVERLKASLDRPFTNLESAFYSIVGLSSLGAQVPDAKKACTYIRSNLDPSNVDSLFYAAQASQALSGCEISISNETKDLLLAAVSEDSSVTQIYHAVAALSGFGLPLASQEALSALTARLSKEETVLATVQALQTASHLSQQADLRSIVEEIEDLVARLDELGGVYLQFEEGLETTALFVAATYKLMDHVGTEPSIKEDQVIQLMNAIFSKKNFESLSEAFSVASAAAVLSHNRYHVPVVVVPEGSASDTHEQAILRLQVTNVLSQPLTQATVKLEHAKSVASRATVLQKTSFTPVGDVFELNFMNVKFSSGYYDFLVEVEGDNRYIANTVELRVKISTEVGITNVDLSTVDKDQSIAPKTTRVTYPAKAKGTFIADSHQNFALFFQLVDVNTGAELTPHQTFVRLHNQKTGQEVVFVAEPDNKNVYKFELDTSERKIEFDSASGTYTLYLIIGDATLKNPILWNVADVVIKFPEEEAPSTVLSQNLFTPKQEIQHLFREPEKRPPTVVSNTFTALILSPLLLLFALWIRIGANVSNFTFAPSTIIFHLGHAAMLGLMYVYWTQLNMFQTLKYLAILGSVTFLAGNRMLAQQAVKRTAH
Dolichyl-diphosphooligosaccharide--protein glycosyltransferase 48 kDa subunit (DDOST), sequence (P61803 whole entry partner): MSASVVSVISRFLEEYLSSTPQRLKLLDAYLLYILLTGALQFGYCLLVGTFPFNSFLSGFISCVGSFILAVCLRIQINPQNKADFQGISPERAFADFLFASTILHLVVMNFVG
Dolichyl-diphosphooligosaccharide--protein glycosyltransferase 48 kDa subunit (DDOST), sequence (P61165 whole entry partner): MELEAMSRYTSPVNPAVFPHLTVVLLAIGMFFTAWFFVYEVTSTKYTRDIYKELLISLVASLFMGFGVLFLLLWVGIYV
Dolichyl-diphosphooligosaccharide--protein glycosyltransferase 48 kDa subunit (DDOST), sequence (P0C6T2 whole entry partner): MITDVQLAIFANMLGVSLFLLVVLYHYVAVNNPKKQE
Text: (§3) Supplement 41467_2018_4343_MOESM4_ESM.xlsx, sheet "Exp2" | column: Abundance Ratio: (11) / (11 with PU-H71); Abundance Ratio: (11) / (DMSO); Abundances (Grouped): 11; Abundances (Grouped): 11 with PU-H71

[6] = target: Isoform 2 of Glucose-6-phosphate isomerase (GPI) (Homo sapiens, UniProt P06744); assay type: cell-based
Text: as §3

[7] = sheet Exp1, SKBR3 cells, 11 0.5 µM 3 h vs DMSO
[8] = sheet Exp1, SKBR3 cells, 11 0.5 µM 3 h vs with PU-H71 10 µM
[9] = sheet Merged, SKBR3 cells, 11 0.5 µM 3 h vs DMSO
[10] = sheet Merged, SKBR3 cells, 11 0.5 µM 3 h vs with PU-H71 10 µM

Endoplasmin (HSP90B1), sequence (P14625 22-803): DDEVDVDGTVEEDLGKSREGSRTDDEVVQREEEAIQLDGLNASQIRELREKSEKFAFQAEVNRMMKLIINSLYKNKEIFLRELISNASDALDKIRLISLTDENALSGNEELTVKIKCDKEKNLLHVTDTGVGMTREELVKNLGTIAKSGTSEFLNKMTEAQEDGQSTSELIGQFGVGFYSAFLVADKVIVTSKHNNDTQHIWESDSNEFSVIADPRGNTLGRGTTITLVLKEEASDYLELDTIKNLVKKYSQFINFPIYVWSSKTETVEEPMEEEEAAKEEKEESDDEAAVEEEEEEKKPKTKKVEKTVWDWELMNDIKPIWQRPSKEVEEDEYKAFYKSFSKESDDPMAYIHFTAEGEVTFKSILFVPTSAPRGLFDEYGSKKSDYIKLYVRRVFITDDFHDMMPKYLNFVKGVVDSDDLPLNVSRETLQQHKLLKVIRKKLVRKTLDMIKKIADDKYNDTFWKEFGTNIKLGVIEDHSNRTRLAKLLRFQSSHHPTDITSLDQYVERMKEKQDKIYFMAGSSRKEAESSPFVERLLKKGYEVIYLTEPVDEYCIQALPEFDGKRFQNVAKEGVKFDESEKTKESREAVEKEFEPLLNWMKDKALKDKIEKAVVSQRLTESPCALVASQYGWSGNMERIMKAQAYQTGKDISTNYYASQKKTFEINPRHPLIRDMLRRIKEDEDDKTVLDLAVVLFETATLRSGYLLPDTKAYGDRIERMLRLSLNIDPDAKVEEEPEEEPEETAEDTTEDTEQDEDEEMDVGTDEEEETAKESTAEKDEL

CC(=O)Oc1ccc2c(c1)Oc1cc(OC(C)=O)ccc1C21OC(=O)c2cc(C(=O)NCCOCCOCCNC(=O)CCCC(=O)N(CC#N)S(=O)(=O)c3ccc(C(=O)NCCCn4c(Sc5cc6c(cc5I)OCO6)nc5c(N)ncnc54)cc3)ccc21 [compound 11]
Abundance Ratio: (11) / (11 with PU-H71) ([1]; Exp3, HSP90B1): 1.101
Abundance Ratio: (11) / (DMSO) ([1]; Exp3, HSP90B1): 2.844
Abundances (Grouped): 11 ([1]; Exp3, HSP90B1): 158.7
Abundances (Grouped): 11 with PU-H71 ([1]; Exp3, HSP90B1): 144.1
Abundance Ratio: (11) / (DMSO) [1, 7]: 6.226
Abundance Ratio: (11) / (11 with PU-H71) [1, 8]: 1.266
Abundance Ratio: (11) / (11 with PU-H71) ([1]; sheet Exp2, HSP90B1): 0.932
Abundance Ratio: (11) / (DMSO) ([1]; sheet Exp2, HSP90B1): 2.232
Abundances (Grouped): 11 ([1]; sheet Exp2, HSP90B1): 31.7
Abundances (Grouped): 11 with PU-H71 ([1]; sheet Exp2, HSP90B1): 34
Abundance Ratio: (11) / (DMSO) [1, 9]: 6.226
Abundance Ratio: (11) / (11 with PU-H71) [1, 10]: 1.266
Abundance Ratio: (11) / (11 with PU-H71) ([2]; Exp3, TKT): 0.724
Abundance Ratio: (11) / (DMSO) ([2]; Exp3, TKT): 1.695
Abundances (Grouped): 11 ([2]; Exp3, TKT): 45.6
Abundances (Grouped): 11 with PU-H71 ([2]; Exp3, TKT): 63
Abundance Ratio: (11) / (DMSO) [2, 7]: 2.131
Abundance Ratio: (11) / (11 with PU-H71) [2, 8]: 0.917
Abundance Ratio: (11) / (11 with PU-H71) ([2]; sheet Exp2, TKT): 0.939
Abundance Ratio: (11) / (DMSO) ([2]; sheet Exp2, TKT): 2.163
Abundances (Grouped): 11 ([2]; sheet Exp2, TKT): 103.4
Abundances (Grouped): 11 with PU-H71 ([2]; sheet Exp2, TKT): 110.1
Abundance Ratio: (11) / (DMSO) [2, 9]: 2.131
Abundance Ratio: (11) / (11 with PU-H71) [2, 10]: 0.917
Abundance Ratio: (11) / (11 with PU-H71) ([3]; Exp3, SLC3A2): 0.823
Abundance Ratio: (11) / (DMSO) ([3]; Exp3, SLC3A2): 3.728
Abundances (Grouped): 11 ([3]; Exp3, SLC3A2): 115.2
Abundances (Grouped): 11 with PU-H71 ([3]; Exp3, SLC3A2): 140
Abundance Ratio: (11) / (DMSO) [3, 7]: 3.951
Abundance Ratio: (11) / (11 with PU-H71) [3, 8]: 0.737
Abundance Ratio: (11) / (11 with PU-H71) ([3]; sheet Exp2, SLC3A2): 0.802
Abundance Ratio: (11) / (DMSO) ([3]; sheet Exp2, SLC3A2): 3.119
Abundances (Grouped): 11 ([3]; sheet Exp2, SLC3A2): 91.7
Abundances (Grouped): 11 with PU-H71 ([3]; sheet Exp2, SLC3A2): 114.4
Abundance Ratio: (11) / (DMSO) [3, 9]: 3.119
Abundance Ratio: (11) / (11 with PU-H71) [3, 10]: 0.802
Abundance Ratio: (11) / (DMSO) [4, 7]: 6.472
Abundance Ratio: (11) / (11 with PU-H71) [4, 8]: 0.948
Abundance Ratio: (11) / (11 with PU-H71) ([4]; sheet Exp2, G6PD): 0.848
Abundance Ratio: (11) / (DMSO) ([4]; sheet Exp2, G6PD): 1.663
Abundances (Grouped): 11 ([4]; sheet Exp2, G6PD): 63.2
Abundances (Grouped): 11 with PU-H71 ([4]; sheet Exp2, G6PD, with PU-H71): 74.5
Abundance Ratio: (11) / (DMSO) [4, 9]: 3.281
Abundance Ratio: (11) / (11 with PU-H71) [4, 10]: 0.897
Abundance Ratio: (11) / (11 with PU-H71) ([5]; sheet Exp2): 0.942
Abundance Ratio: (11) / (DMSO) ([5]; sheet Exp2): 2.044
Abundances (Grouped): 11 ([5]; sheet Exp2): 37.4
Abundances (Grouped): 11 with PU-H71 ([5]; sheet Exp2, with PU-H71): 39.7
Abundance Ratio: (11) / (11 with PU-H71) ([6]; sheet Exp2): 0.768
Abundance Ratio: (11) / (DMSO) ([6]; sheet Exp2): 2.545
Abundances (Grouped): 11 ([6]; sheet Exp2): 34.1
Abundances (Grouped): 11 with PU-H71 ([6]; sheet Exp2, with PU-H71): 44.4
